Experiment in all cases: KinomeScan kinase panel, single concentration 10 µM
Type in all cases: binding

Experiment [1] has as its target T1, KinomeScan kinase panel (Homo sapiens, UniProt Q9Y2H1).
T1 construct: purchased DiscoveRx (KinomeScan)
Particulars: NDR2, 10 µM; read-out: score (%).

The target in experiment [2] is T2, KinomeScan kinase panel (Homo sapiens, UniProt P17612).
T2 construct: purchased DiscoveRx (KinomeScan)
The note with it: PKAC-alpha, 10 µM; read-out: score (%).

Experiment [3] addresses T3, KinomeScan kinase panel (Homo sapiens, UniProt Q8IVH8).
T3 construct: purchased DiscoveRx (KinomeScan)
T3 sequence (Q8IVH8 1-894): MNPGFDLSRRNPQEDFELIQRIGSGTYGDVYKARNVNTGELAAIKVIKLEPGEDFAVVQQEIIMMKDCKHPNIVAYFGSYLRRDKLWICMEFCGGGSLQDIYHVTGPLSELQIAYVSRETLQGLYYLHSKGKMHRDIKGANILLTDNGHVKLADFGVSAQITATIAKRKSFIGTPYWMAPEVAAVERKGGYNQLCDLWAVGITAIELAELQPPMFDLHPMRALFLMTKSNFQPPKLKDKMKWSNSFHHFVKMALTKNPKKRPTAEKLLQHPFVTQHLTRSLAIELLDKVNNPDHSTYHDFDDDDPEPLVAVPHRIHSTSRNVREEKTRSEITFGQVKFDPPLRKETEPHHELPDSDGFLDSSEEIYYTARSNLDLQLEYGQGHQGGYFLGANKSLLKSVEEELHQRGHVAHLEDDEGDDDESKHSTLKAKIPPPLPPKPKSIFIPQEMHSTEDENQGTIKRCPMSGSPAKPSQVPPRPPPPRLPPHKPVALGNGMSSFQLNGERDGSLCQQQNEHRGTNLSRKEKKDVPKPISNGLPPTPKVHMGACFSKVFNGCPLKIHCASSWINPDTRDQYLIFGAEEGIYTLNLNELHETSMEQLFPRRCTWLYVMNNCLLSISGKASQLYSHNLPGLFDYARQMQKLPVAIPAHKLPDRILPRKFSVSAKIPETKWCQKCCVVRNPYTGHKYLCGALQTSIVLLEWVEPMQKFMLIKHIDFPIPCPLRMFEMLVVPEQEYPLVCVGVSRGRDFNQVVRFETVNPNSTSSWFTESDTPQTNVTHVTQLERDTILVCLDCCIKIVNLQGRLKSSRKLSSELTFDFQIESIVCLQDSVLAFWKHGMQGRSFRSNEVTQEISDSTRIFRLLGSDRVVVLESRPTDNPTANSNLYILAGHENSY
Particulars: MAP4K3, 10 µM.

Experiment [4] deals with T4, KinomeScan kinase panel (Homo sapiens, UniProt O43353).
T4 construct: purchased DiscoveRx (KinomeScan)
T4 sequence (O43353 whole entry): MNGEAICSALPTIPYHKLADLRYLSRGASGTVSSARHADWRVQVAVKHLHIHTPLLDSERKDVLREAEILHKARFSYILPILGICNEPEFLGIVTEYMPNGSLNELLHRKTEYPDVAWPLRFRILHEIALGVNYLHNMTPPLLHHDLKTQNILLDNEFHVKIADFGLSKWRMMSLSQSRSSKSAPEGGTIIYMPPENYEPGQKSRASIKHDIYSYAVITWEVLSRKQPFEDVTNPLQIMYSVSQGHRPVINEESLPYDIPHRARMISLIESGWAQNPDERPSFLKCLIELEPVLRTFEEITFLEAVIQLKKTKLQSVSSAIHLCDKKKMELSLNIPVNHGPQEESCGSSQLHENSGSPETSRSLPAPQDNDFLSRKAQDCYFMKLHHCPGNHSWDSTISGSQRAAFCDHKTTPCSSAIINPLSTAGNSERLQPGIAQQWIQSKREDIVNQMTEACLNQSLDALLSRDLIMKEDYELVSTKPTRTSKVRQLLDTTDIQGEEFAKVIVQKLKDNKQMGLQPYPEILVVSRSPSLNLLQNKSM
The note with it: read-out: score (%).

For experiment [5], the target named is T5, KinomeScan kinase panel (Homo sapiens, UniProt P35590).
T5 construct: purchased DiscoveRx (KinomeScan)
T5 sequence (P35590 22-1138): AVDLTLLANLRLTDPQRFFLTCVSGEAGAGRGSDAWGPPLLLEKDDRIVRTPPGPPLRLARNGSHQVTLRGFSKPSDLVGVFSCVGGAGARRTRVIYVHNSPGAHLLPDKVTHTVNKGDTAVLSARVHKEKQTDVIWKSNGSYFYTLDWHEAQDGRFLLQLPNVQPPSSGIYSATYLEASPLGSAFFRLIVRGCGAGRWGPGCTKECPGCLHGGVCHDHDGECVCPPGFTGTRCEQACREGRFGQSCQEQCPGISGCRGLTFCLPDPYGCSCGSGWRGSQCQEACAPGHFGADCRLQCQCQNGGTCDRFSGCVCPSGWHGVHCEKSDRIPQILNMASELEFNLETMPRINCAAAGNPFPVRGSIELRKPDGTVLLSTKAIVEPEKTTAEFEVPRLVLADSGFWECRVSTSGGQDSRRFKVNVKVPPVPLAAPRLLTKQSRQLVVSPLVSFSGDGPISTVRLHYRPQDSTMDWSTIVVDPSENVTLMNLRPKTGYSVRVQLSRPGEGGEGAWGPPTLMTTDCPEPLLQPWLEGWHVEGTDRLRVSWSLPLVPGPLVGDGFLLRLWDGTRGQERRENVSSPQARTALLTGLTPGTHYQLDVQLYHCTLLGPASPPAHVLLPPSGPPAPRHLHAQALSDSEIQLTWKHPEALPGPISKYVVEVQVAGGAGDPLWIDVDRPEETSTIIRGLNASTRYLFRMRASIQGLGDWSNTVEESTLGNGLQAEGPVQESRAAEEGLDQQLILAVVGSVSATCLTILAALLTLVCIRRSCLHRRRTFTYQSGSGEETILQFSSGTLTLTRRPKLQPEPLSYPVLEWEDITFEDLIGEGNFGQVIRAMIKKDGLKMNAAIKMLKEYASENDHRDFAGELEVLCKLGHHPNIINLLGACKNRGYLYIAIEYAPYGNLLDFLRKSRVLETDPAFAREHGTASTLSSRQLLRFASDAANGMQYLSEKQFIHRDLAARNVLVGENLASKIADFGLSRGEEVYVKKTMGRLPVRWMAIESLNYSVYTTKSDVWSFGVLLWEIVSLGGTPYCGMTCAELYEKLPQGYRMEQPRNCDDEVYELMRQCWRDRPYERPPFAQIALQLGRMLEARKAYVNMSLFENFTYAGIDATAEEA
Particulars: read-out: score (%).

The target in experiment [6] is T6, KinomeScan kinase panel (Homo sapiens, UniProt Q8IYT8).
T6 construct: purchased DiscoveRx (KinomeScan)
T6 sequence (Q8IYT8 1-1036): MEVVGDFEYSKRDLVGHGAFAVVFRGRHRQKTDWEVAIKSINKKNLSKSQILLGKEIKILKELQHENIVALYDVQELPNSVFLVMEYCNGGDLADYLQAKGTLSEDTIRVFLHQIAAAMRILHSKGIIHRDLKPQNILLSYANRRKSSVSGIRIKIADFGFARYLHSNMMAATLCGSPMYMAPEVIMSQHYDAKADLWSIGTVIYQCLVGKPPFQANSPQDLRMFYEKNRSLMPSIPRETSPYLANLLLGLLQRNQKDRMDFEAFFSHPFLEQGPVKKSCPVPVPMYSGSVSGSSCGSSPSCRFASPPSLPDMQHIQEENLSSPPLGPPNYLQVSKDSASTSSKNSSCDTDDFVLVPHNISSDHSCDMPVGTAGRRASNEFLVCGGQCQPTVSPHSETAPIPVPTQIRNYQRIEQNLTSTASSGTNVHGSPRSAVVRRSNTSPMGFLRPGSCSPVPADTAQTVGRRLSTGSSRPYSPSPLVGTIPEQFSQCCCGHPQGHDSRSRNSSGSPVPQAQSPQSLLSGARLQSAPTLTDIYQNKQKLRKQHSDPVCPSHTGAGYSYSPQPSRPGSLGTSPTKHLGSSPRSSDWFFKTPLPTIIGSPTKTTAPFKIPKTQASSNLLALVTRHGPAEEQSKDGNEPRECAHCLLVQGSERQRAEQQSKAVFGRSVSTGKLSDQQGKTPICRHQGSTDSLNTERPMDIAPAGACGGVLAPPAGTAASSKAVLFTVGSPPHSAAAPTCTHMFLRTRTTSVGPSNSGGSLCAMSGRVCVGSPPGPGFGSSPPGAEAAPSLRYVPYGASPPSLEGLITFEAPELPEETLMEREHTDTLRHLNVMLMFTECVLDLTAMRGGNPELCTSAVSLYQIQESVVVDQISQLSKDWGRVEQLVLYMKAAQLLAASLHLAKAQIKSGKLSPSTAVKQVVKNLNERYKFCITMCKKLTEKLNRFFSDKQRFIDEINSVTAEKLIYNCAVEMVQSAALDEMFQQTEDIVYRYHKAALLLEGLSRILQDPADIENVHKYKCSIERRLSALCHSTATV
Particulars: kinase ULK2; 10 µM; read-out: score (%).

Experiment [7] deals with T7, KinomeScan kinase panel (Homo sapiens, UniProt Q8NFD2).
T7 construct: purchased DiscoveRx (KinomeScan)
T7 sequence (Q8NFD2 1-765): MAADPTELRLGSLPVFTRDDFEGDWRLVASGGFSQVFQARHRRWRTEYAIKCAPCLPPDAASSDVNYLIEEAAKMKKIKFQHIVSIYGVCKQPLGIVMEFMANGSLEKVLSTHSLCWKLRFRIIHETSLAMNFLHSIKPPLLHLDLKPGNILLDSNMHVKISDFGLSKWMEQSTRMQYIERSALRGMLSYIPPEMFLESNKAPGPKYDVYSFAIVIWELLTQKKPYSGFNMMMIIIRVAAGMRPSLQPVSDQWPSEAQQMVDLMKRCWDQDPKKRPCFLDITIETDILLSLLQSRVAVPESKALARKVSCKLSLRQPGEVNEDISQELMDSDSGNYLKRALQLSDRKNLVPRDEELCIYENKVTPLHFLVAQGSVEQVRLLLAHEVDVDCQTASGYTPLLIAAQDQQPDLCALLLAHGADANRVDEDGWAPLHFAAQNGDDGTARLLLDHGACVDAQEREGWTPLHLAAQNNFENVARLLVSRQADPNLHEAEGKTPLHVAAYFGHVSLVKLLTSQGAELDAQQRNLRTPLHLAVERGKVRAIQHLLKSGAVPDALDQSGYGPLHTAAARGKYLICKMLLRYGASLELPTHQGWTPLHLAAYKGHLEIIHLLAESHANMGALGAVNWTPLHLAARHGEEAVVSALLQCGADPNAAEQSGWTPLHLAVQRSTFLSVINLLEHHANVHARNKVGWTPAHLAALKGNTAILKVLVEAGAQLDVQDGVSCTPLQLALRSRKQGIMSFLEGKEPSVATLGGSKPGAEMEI
The note with it: ANKK1, 10 µM; read-out: score (%).

Results on three compounds are retold here after PMC4457528, “Identification of Novel Small Molecule Inhibitors of Oncogenic RET Kinase” (PLoS ONE, 2015).

Read-outs that look alike come from different tables or passages of the source.

T1 sequence (Q9Y2H1 whole entry): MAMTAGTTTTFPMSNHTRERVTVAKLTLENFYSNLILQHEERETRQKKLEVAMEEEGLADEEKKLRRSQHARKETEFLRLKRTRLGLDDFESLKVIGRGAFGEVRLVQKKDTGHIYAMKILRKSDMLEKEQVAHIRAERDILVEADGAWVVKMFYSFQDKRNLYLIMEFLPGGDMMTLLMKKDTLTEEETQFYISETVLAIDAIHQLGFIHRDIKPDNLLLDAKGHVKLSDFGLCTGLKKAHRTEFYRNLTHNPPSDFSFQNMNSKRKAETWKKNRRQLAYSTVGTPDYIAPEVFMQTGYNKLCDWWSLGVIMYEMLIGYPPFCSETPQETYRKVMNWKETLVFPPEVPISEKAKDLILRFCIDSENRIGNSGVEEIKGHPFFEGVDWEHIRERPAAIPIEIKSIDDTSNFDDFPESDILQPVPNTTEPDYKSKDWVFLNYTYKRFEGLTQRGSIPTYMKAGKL

For the compound `CCN1CCN(Cc2ccc(NC(=O)c3ccc(C)c(NC(=O)c4cncc(-c5cccs5)c4)c3)cc2C(F)(F)F)CC1` [ALW-II-41-27], the remaining binding at 10 µM on KinomeScan kinase panel [1] is 11%; at KinomeScan kinase panel [2], 7.4%; on KinomeScan kinase panel [4] (RIPK2, 10 µM) it was 3.1%; on KinomeScan kinase panel [5] (kinase TIE1, 10 µM) it was 1.4%; at KinomeScan kinase panel [6], greater than 30%; on KinomeScan kinase panel [7] it was 1.4%. The “score (%)” value on KinomeScan kinase panel [3] is 20%.

For `CCN1CCN(Cc2ccc(NC(=O)c3ccc(C)c(/C=C/c4cnc5[nH]ccc5c4Cl)c3)cc2C(F)(F)F)CC1` [HG-6-63-01, (E)-3-(2-(4-chloro-1H-pyrrolo[2,3-b]pyridin-5-yl)vinyl)-N-(4-((4-ethylpiperazin-1-yl)methyl)-3-(trifluoromethyl)phenyl)-4-methylbenzamide], the remaining binding at 10 µM at KinomeScan kinase panel [1] was greater than 30%; at KinomeScan kinase panel [2] it was greater than 30%; on KinomeScan kinase panel [4] (RIPK2, 10 µM), 1.6%; at KinomeScan kinase panel [5] (TIE1, 10 µM), 1.2%; on KinomeScan kinase panel [6] it was 27%; at KinomeScan kinase panel [7], 0.4%. Further, the “score (%)” value at KinomeScan kinase panel [3] amounted to 4.2%.

On to `CCN1CCN(Cc2ccc(NC(=O)c3ccc(C)c(C#Cc4cccnc4)c3)cc2C(F)(F)F)CC1` [XMD15-44], for which the remaining binding at 10 µM at KinomeScan kinase panel [1] stood at 8.7%; at KinomeScan kinase panel [2], 8.4%; at KinomeScan kinase panel [4] (kinase RIPK2, 10 µM), 0.45%; at KinomeScan kinase panel [5] (kinase TIE1, 10 µM), 1.6%; on KinomeScan kinase panel [6] it was 50%; on KinomeScan kinase panel [7] it was 8.2%. Further, the “score (%)” value on KinomeScan kinase panel [3] was 2.6%.
